Measured values published in US7906488B2, “Sphingolipids in treatment and prevention of steatosis and of steatosis or of hepatotoxicity and its sequelae” (Nederlandse Organisatie Voor …, priority 2004, dated 2011).

How the values were obtained:
APOE*3Leiden mice = test: Plasma ALAT, SAA and fibrinogen (plasma inflammation markers); type: in vivo; conditions: 1% PS diet
Description: Plasma parameters: Tail blood samples were collected in EDTA-coated cups, or in paraoxon-coated capillaries to prevent lipolysis as described in Zambon et al. 1993 (Zambon et al. 1993. J. Lipid Res. 34:1021-1028). Plasma lipid parameters were determined using commercial kits for total cholesterol (C) Chol R1 from Roche Diagnostics, Mannheim, Germany), non-esterified free fatty acids (FFA) (NEFA-C; Wako chemicals, Neuss, Germany), Total triglycerides (TG) (Triglyceride GPO-Trinder; Sigma, St. Louis, Mo.), β-hydroxybutyrate (β-HB; Sigma) and ALAT (Reflotron GPT; Roche). Serum amyloid A (SAA) was measured by ELISA (Biosource, Nivelles, Belgium) and fibrinogen by sandwich ELISA, as described in Koopman et al., 2005 (Koopman et al. 2005. Fibrinol Proteol 11:19). For lipoproteins fractionation, groupwise-pooled plasma was size-fractionated by fast protein liquid chromatography (FPLC) on a Superose 6 column (Äkta; Amersham Pharmacia Biotech, Uppsala, Sweden). Fractions were assayed for total C and TG as described. Hepatic VLDL-TG production: The rate of hepatic VLDL-TG production, de novo apoB secretion, and VLDL composition were determined in overnight-fasted mice. Mice were anaesthetized with vetranquil/fentanyl/midazolam i.p., and injected i.v. with 0.1 ml PBS containing 100 μCi Tran^35S-label™ (ICN Biomedicals, Irvine, Calif.) to measure the de novo apoB synthesis. After 30 min, the animals received a Triton WR1339 injection (Tyloxapol, Sigma; 500 mg/kg body weight in 100 μl saline) to prevent systemic lipolysis of newly-secreted hepatic VLDL-TG (Aalto-Setala et al. 1992. J. Clin. Invest 90:1889-1900.27) Blood samples were drawn at 0, 15, 30, 60, and 90 min after Triton WR1339 injection and plasma TG concentrations were determined. After 90 min, the animals were sacrificed and blood was collected by retro-orbital bleeding for isolation of VLDL. VLDL composition: VLDL particles (d<1.019) were separated from other lipoproteins in plasma by density gradient ultra-centrifugation, as described in Jong et al., 1996 (Jong et al. 1996. Arterioscler. Thromb. Vasc. Biol. 16:934-940). Protein content of the VLDL fraction was determined by Lowry's assay (Lowry et al., 1951. J. Biol. Chem. 193:265-275), and TG and total C were determined as described above. Phospholipids and free cholesterol were determined using standard commercial kits (Wako Chemicals, Neuss, Germany). The ^35S-apoB content of VLDL was measured after selective precipitation of apoB with isopropanol as described elsewhere (Li et al. 1996 J. Lipid Res. 37:210-220; Pietzsch et al. 1995. Biochim. Biophys. Acta 1254:77-88). In vivo clearance of VLDL-like TG-rich particles: To determine whether 1% PS accelerates the clearance of TG-rich lipoproteins from plasma, we used radiolabeled emulsion particles as a tool. VLDL-like emulsion particles containing 200 μCi of [^3H]triolein and 20 μCi of [^14C]cholesteryl oleate were prepared and characterized as described in Rensen et al. 1997 (Rensen et al., 1997. J. Lipid Res. 38:1070-1084). Fed mice were anaesthetized as described above and laparotomy was performed. […] After taking the last liver and blood sample, the remainder of the liver, heart, spleen, hind limb muscle, and gonadal, perirenal and intestinal white adipose tissues were harvested. Lipids were extracted overnight at 60° C. in 500 μL of Solvable™, and radioactivity was counted as described in Rensen et al., 1997 (supra). RNA isolation and RT-PCR: Livers from 4 h-fasted mice fed 1% PS-containing diet or control Western-type diet for 5 weeks were removed immediately after sacrifice, flushed with cold 0.9% NaCl and snap frozen in liquid nitrogen. Total RNA was isolated as described by Chomczynski and Sacchi (Chomczynski, P. and Sacchi, N. 1987. Anal. Biochem. 162:156-159) by use of RNA-Bee™ (Campro Scientific, Berlin, Germany). cDNA synthesis was performed according to Bloks et al (Bloks et al., 2001. J. Lipid Res. 42:41-50). […]

APOE3*Leiden (E3L) mice = test: High fat high cholesterol diet feeding for 16 weeks (Example 1); type: in vivo
Description: Forty-five female heterozygous APOE3*Leiden […]) mice were fed a high fat and high cholesterol diet for four weeks (week -4 to 0). The mice were housed during the experiment in clean-conventional animal rooms (relative humidity 50-60%, temperature 21° C., light cycle 6 am to 6 pm). Mice were supplied with food and acidified tap water ad libitum. At week 0, the mice were randomized on the basis of plasma total triglyceride and cholesterol levels into a control group of fifteen mice and two treatment groups of fifteen mice. The groups were: • 1. high fat, high cholesterol diet only • 2. high fat, high cholesterol diet plus 0.7% (w/w) phytosphingosine • 3. high fat, 'high' cholesterol diet with a reduced cholesterol content, resulting in about the same plasma cholesterol level as was obtained in group 2. The treatment was continued for 16 weeks. During the treatment period, tail blood samples were obtained at week 0, 2, 4, 8, 12, and 16 to measure plasma cholesterol and triglyceride levels and to determine plasma lipoprotein composition. After sixteen weeks, mice were autopsied, liver weight was determined. Body weight and food consumption were determined every four weeks Dietary ingredients were provided by Hope Farms (Woerden, the Netherlands). For group 1 (high cholesterol), the hypercholesterolemic Western-type diet (W-diet) described by Nishina et al (J. Lipid Res. 1990; 31:859) was supplemented with cholesterol (0.5% w/w, final concentration) and with sodium cholate (0.05% w/w, final concentration). This powdered Western-type diet was mixed with 2% agar and freeze-dried as pellets. The diet for group 2 (treatment group) was prepared by the addition of 0.7% (w/w) phytosphingosine to the same powdered Western-type diet (i.e. also supplemented with cholesterol (0.5% w/w, final concentration) and sodium cholate (0.05% w/w, final concentration)). The supplemented diet mixture was mixed with 2% agar and freeze-dried as pellets. The diet W for group 3 (low cholesterol) contained 0.1% cholesterol, and 0.05% sodium cholate (w/w, final concentration). This powdered Western-type diet was mixed with 2% agar and freeze-dried as pellets. The diets were prepared every eight weeks, and stored in the dark at -20° C. Food was given ad libitum. Total cholesterol was measured using the kit Chol R1 from Roche. Total triglycerides were measured using the kit Triglycerides GPO-PAP from Roche. ALAT was measured by dry chemistry on a Reflotron (Roche).

[1] = week 16, 0.7% (w/w) phytosphingosine in high fat, high cholesterol diet
[2] = week 16, 0.7% phytosphingosine, p<0.001

CCCCCCCCCCCCCC[C@@H](O)[C@@H](O)[C@@H](N)CO [PS, phytosphingosine]
Plasma ALAT, % Δ vs control (APOE*3Leiden mice; 5 weeks): −79%
Plasma SAA, % Δ vs control (APOE*3Leiden mice; 5 weeks): −74%
Plasma ALAT (APOE*3Leiden mice; 5 weeks, 4 h-fasted): 41 ± 21 U/l
Plasma SAA (APOE*3Leiden mice; 5 weeks, 4 h-fasted): 3 ± 0.3 µg/mL
Plasma fibrinogen (APOE*3Leiden mice; 5 weeks, 4 h-fasted): 2.3 ± 0.7 mg/mL
Decrease of ALAT levels vs control (APOE*3Leiden mice; p<0.05): 79%
Decrease of SAA levels vs control (APOE*3Leiden mice; p<0.05): 74%
Body weight and food intake between the three groups (APOE3*Leiden (E3L) mice; 0.7% phytosphingosine, 16 weeks): did not differ
Final mean body weight (APOE3*Leiden (E3L) mice; [1]): 22.1 gram
Final mean liver weight (APOE3*Leiden (E3L) mice; [1]): 1.34 gram
Final mean plasma ALAT values (APOE3*Leiden (E3L) mice; [1]): 82 U/L
ALAT compared with high cholesterol group (APOE3*Leiden (E3L) mice; [2]): significantly lower
Liver weight compared with high cholesterol group 1 (APOE3*Leiden (E3L) mice; [2]): significantly lower
